# From patent publication US5567704A, “R-enatiomerically pure hydroxylated xanthine compounds to treat baldness” (priority 1995, dated 1996)
# Experiments:
# [1] = system: PBMC (peripheral blood mononuclear cells); assay: two-way mixed lymphocyte reaction (MLR); assay type: cell-based, human; settings: FIG. 1
# From the text: Various in vitro assays can be used to measure effects of the inventive compounds to module immune activity and have antitumor activity using a variety of cellular types. For example, a mixed lymphocyte reaction (MLR) provides a valuable screening tool to determine biological activity of each inventive compound. In the MLR, PBMCs (peripheral blood mononuclear cells) are obtained by drawing whole blood from healthy volunteers in a heparinized container and diluted with an equal volume of hanks balanced salt solution (HBSS). This mixture is layered on a sucrose density gradient, such as a Ficoll-Hypaque® gradient (specific gravity 1.08), and centrifuged at 1000× g for 25 minutes at room temperature or cooler. PBMC are obtained from a band at a plasma-Ficoll interface, separated and washed at least twice in a saline solution, such as HBSS. Contaminating red cells are lysed, such as by ACK lysis for 10 min at 37° C., and the PBMCs are washed twice in HBSS. The pellet of purified PBMCs is resuspended in complete medium, such as RPMI 1640 plus 20% human inactivated serum. Proliferative response of PBMC to allogeneic stimulation is determined in a two-way MLR performed in a 96-well microtiter plate. […] At the conclusion of the incubation tritiated thymidine is added (for example, 1 μCi/well of 40 to 60 Ci/mmole) and proliferation determined by liquid scintillation counting. […]
# U937 cells = assay: adhesion of IL-1α activated U937 cells to HUVEC; assay type: cell-based, human; settings: 250 μM pre-treatment of U937 cells, FIG. 22
# Procedure: Murine peritoneal exudate cell macrophages (PEC) were isolated by perfusion of mouse peritoneum and plated into 96-well trays at 5×10^5 cells per well. Cells were stimulated with 5 μg/ml Salmonella abortus equi -derived endotoxin (LPS; Sigma Chemical Co., L-1887) or […] IL-1α (Genzyme; Cambridge, Mass.) with or without the addition of CT1501R added to the cultures one hour prior to addition of the stimulus. At various times thereafter, supernatants were removed and levels of either TNF-α or IL-1α were assayed using commercial 96-well microtiter immunoassay kits (Genzyme; TNF; Endogen, Boston, Mass.; IL-1α) according to manufacturer's specifications. For the adhesion studies, early passage human umbilical vein endothelial cells (HUVEC) were obtained. from commercial suppliers (Clonetics, San Diego, Calif. or Cell Systems, Seattle, Wash.) and cultured in defined, Hepes buffered, serum free medium (Cell Systems, cat 301-180) supplemented with acidic FGF (Cell Systems cat 401-111). 4000 cells were plated into each well of a 96-well microtiter plate and allowed to incubate for 72 hrs at 37° C. […] After addition of […] Hanks Balanced Salt Solution (HBSS), the microtiter plate was then analyzed on a Millipore Cytofluor fluorescent plate reader (excitation 488 nm; emission 525 nm). […]
# nu/nu mice = assay: nude mouse hair studies, topical application; assay type: in vivo
# From the text: This example illustrates nude mouse hair studies involving topical application of CT1501R. Six to eight week old, female, nu/nu mice from Charles River Laboratories were housed at Biosupport Research Support Services (Seattle, Wash.) in autoclaved micro isolator units with hyperchlorinated autoclaved water, irradiated rodent chow and kept under a laminar flow hood. Caging was changed weekly, and water was changed twice weekly. The mice were acclimated for 5 days before beginning each study.
# The first topical formulation was prepared by adding CT1501R to a heated hydrophilic ointment (USP) at a 1% concentration, and allowed to solidify.
# Nude mice were painted twice daily for 16 days with the first topical formulation of CT1501R on the left flank and another compound in the same base on the right flank with sterile applicators. Mice were handled under the laminar flow hood with applicator wearing face mask and sterile gloves. After 16 days, one mouse was sacrificed by cervical dislocation and skin biopsies were taken of the treated areas of the shoulder/flank and from the non-treated area of the dorsal pelvis (rump). Specimens were placed in 10% buffered formalin solution. Biopsies were sent to a veterinary dermopathologist for histopathology. Six weeks following treatment, a second mouse was euthanatized and biopsied the same as the first. Samples were sent for histopathology.
# In a second experiment, topical application of CT1501R was performed along with a commercial topical minoxidil preparation (Rogaine®, Upjohn) that is approved for a hair growth indication. Five to six week old, female, nu/nu mice from Bantin and Kingman Universal were housed at Biosupport Research Support Services (Seattle, Wash.) in autoclaved micro isolator units with hyper chlorinated autoclaved water, irradiated rodent chow and kept under a laminar flow hood. Caging was changed weekly, and water was changed twice weekly. Mice were acclimated for 7 days before beginning study.
# CT1501R, and two other compounds were prepared in a topical formulation of 60% ETOH, 10% water and 30% PEG along with vehicle only. Minoxidil was purchased as the commercial preparation Rogaine® from a local pharmacy. Rogaine® is sold in the same formulation base. Mice were identified by unique tail markings specific for each test article. Two mice per group were treated with CT1501R and another compound. One mouse was treated with each of vehicle and minoxidil. The mice were handled under the laminar flow hood with the applicator wearing face mask and sterile gloves. Each mouse was treated twice daily with a separate sterile applicator to avoid contamination of the solutions or the mice. All mice were applied a strip of appropriate test article along the center line of the back from the base of the skull to the base of the tail, approximately 1.5 cm wide. After 34 days all mice were euthanatized by overdose of halothane anesthesia. Skin biopsies were taken from each of the 7 mice over the nape of the neck between the scapulas (approximate size was 1×1.5 cm). All specimens were blotted on gauze to remove blood and fluids, affixed to a cut piece of wooden tongue depressor, and placed specimen side down in separately marked containers with 10% buffered formalin. Specimens were shipped to a veterinary dermatopathologist for qualitative histopathological determinations.
# [2] = first experiment, 1% in hydrophilic ointment, twice daily 16 days
compound,measurement,setting,value
"C[C@@H](O)CCCCn1c(=O)c2c(ncn2C)n(C)c1=O [CT1501R, (R)-1-(5-hydroxyhexyl)-3,7-dimethylxanthine]",proliferative response of PBMC to allogeneic stimulation,[1],showed dose-response activity
same,IL-1α mediated increase in adhesion of U937 cells to HUVEC,U937 cells,effectively blocked the IL-1α mediated increase in adhesion to HUVEC to near background levels
same,"hair follicles, histopathology",nu/nu mice; [2],significantly more normal appearing hair follicles than the non treated sections
same,"hair shafts, histopathology",nu/nu mice; [2],Numerous hair shafts were seen exiting the follicles in the treated sections
same,hair growth promotion compared with minoxidil,nu/nu mice; second experiment,at least as good at promoting hair growth in this model as minoxidil
same,visual inspection of hair,"nu/nu mice; second experiment, group of CT1501R, minoxidil and control","most ""hairy"""
same,"hair follicles, subjective histopathological examination","nu/nu mice; second experiment, topical twice daily, 34 days",greatest concentration of hair folicles
